Laboratory results published in patent US11149024B2, “Synthesis of Mcl-1 inhibitor” (ASTRAZENECA AB, priority 2017, dated 2021).

Legend:
Assay type in all cases: cell-based
[1] = tested on: NCI-H23 (non-small cell lung cancer) cells; assay: Caspase Activity assay (Caspase-Glo 3/7), NCI-H23; settings: Homo sapiens, 6 h treatment, induction of apoptosis
Method: (§1) Caspase Activity assay: This is a cell assay to measure the induction of apoptosis in MOLP-8 (multiple myeloma), KMS-12-BM (multiple myeloma), MV4; 11 (acute myeloid leukemia), and NCI-H23 (non-small cell lung cancer) cells after 6 h treatment with Mcl-1 inhibitors. On the first day, 3000 (MOLP-8, KMS-12-BM, MV4; 11) or 1250 (NCI-H23) cells/well were seeded with 50 μL of growth media (IMDM+10% FBS+2 mM L-Glu for MV4; 11 and RPMI-1640+10% FBS+2 mM L-Glu for all others) in 384-well white microplates, and incubated overnight (37° C., 5% C02, 80% RH). On the second day, the cells were treated with Compound I using an ECHO acoustic liquid handler (10 point half-log serial dilution, 31.5 μM top concentration, 0.3% final DMSO concentration). After 6 h incubation (37° C., 5% C02, 80% RH), 25 μL of Caspase-Glo 3/7 reagent (Promega) was added into each well, and plates were incubated at room temperature for 30 min protected from light. Luminescence was recorded using an Infinite M200 microplate reader (Tecan) with a 100 ms integration time.

[2] = tested on: KMS-12-BM (multiple myeloma) cells; assay: Caspase Activity assay (Caspase-Glo 3/7), KMS-12-BM; settings: Homo sapiens; KMS-12-BM cells, 6 h treatment, induction of apoptosis
Method: as §1

[3] = tested on: MOLP-8 (multiple myeloma) cells; assay: Caspase Activity assay (Caspase-Glo 3/7), MOLP-8; settings: Homo sapiens; MOLP-8 cells, 6 h treatment, induction of apoptosis
Method: as §1

[4] = tested on: MV4; 11 (acute myeloid leukemia) cells; assay: Caspase Activity assay (Caspase-Glo 3/7), MV4; 11; settings: Homo sapiens, 11 cells, 6 h treatment, induction of apoptosis
Method: as §1

Cc1c2c(nn1C)CSCc1cc(n(C)n1)CSc1cc(c3ccccc3c1)OCCCc1c(C(=O)O)n(C)c3c-2c(Cl)ccc13 (atropisomer, axis not shown; (Ra)) [Compound I, (Ra)-(+)-17-chloro-5,13,14,22-tetramethyl-28-oxa-2,9-dithia-5,6,12,13,22-pentaazaheptacyclo[27.7.1.1^4,7.0^11,15.0^16,21.0^20,24.0^30,35]octatriaconta-1(37),4(38),6,11,14,16,18,20,23,29,31,33,35-tridecaene-23-carboxylic acid]
EC50 [1]: 193 nM | EC50 [2]: 43 nM | EC50 [3]: 30 nM | EC50 [4]: 20 nM
